The numbers were not newly measured in patent US10201585B2, “Methods for treatment of atherosclerosis” (Stealth Peptides International, Inc., priority 2012, dated 2019), which cites them from elsewhere.

The test system of one series is hepatitis C virus (HCV). As to conditions: alone and with interferon; cited from earlier work.
Series [1] concerns spinal cord injury in rodents. As to conditions: administered both pre- and post-injury; cited from earlier work.

For `CC(C)c1c(C(=O)Nc2ccccc2)c(-c2ccccc2)c(-c2ccc(F)cc2)n1CC[C@@H](O)C[C@@H](O)CC(=O)O` [atorvastatin], in the series on hepatitis C virus (HCV), the “Effect on HCV in an in vitro model of HCV infection” value (“Effect on HCV in an in vitro model” for short) is listed as “anti-HCV effect”. Besides, the “Effect in spinal cord injury” value in series [1] is “promoting locomotion and tissue sparing, as well as reducing inflammation”.
With `CC[C@H](C)C(=O)O[C@H]1C[C@@H](C)C=C2C=C[C@H](C)[C@H](CC[C@@H]3C[C@@H](O)CC(=O)O3)[C@H]21` [lovastatin], in the series with hepatitis C virus (HCV), the “Effect on HCV in an in vitro model” value is given as “anti-HCV effect”.
As to `O=C(O)C[C@H](O)C[C@H](O)/C=C/c1c(C2CC2)nc2ccccc2c1-c1ccc(F)cc1` [pitavastatin], the “Effect on HCV in an in vitro model” value with hepatitis C virus (HCV) is listed as “anti-HCV effect”.
